Reference: ChEMBL document CHEMBL5241135, “Activity of N-phenylbenzamide analogs against the neglected disease pathogen, Schistosoma mansoni” (Bioorg Med Chem Lett, 2023)
Calls of active or inactive are those of the source. No cut-off for these calls is given here.

How the values were obtained:
[1] = Selectivity index, ratio of CC50 for human HEK293 cells to EC50 for antischistosomal activity against adult stage of Schistosoma mansoni; assay type: toxicity; settings: read-out: Ratio CC50/EC50
Schistosoma mansoni [2] = assay: Antischistosomal activity against adult stage of Schistosoma mansoni assessed as uncoordinated and slowed motility at 5 uM measured after 24 hrs; assay type: functional, organism-based
Schistosoma mansoni [3] = assay: Antischistosomal activity against adult stage of Schistosoma mansoni assessed as reduction in worm motility measured after 24 hrs; assay type: functional, organism-based
HEK293 = assay: Cytotoxicity against human HEK293 cells measured after 48 hrs; assay type: toxicity, cell-based; settings: hek293, 48 h
Schistosoma mansoni [4] = assay: Antischistosomal activity against adult stage of Schistosoma mansoni assessed as degenerative and lethal changes at 5 uM measured after 48 hrs; assay type: functional, organism-based
Schistosoma mansoni [5] = assay: Antischistosomal activity against adult stage of Schistosoma mansoni assessed as degenerative and lethal changes at 5 uM measured after 24 hrs; assay type: functional, organism-based
Schistosoma mansoni [6] = assay: Antischistosomal activity against adult stage of Schistosoma mansoni assessed as uncoordinated and slowed motility at 5 uM measured after 48 hrs; assay type: functional, organism-based
Schistosoma mansoni [7] = assay: Antischistosomal activity against adult stage of Schistosoma mansoni assessed as degenerative and lethal changes at 5 uM measured after 1 hr; assay type: functional, organism-based
Schistosoma mansoni [8] = assay: Antischistosomal activity against adult stage of Schistosoma mansoni assessed as uncoordinated and slowed motility at 5 uM measured after 1 hr; assay type: functional, organism-based
Schistosoma mansoni [9] = assay: Antischistosomal activity against adult stage of Schistosoma mansoni assessed as uncoordinated and slowed motility at 5 uM measured after 5 hrs; assay type: functional, organism-based
Schistosoma mansoni [10] = assay: Antischistosomal activity against adult stage of Schistosoma mansoni assessed as degenerative and lethal changes at 5 uM measured after 5 hrs; assay type: functional, organism-based

For `O=C(Nc1ccc(C(F)(F)F)cc1)c1ccc(C(F)(F)F)cc1`, the selectivity ratio [1] was > 16, the Activity (Schistosoma mansoni [2]) was “Active” and the EC50 (Schistosoma mansoni [3]) was 1.25 µM. For the same compound, the CC50 (HEK293) was > 20 µM and the Activity (Schistosoma mansoni [4]) was “Active”.
With `O=C(Nc1ccc(F)c(F)c1)c1ccc(F)cc1` the Activity (Schistosoma mansoni [2]) was “inactive”, the Activity (Schistosoma mansoni [5]) was “inactive” and the CC50 (HEK293) was > 20 µM. For the same compound, the Activity (Schistosoma mansoni [4]) was “inactive” and the Activity (Schistosoma mansoni [6]) was “inactive”.
With `COc1ccc(NC(=O)c2cc(Cl)ccc2O)cc1OC` the Activity (Schistosoma mansoni [7]) was “inactive”, the Activity (Schistosoma mansoni [8]) was “inactive” and the CC50 (HEK293) was > 20 µM.
For `Cc1ccc(NC(=O)c2ccc(C(F)(F)F)cc2)cc1C`, the Activity (Schistosoma mansoni [8]) was “Active”, the selectivity ratio [1] was > 5.4 and the Activity (Schistosoma mansoni [5]) was “Active”. The EC50 (Schistosoma mansoni [3]) was 3.7 µM, the CC50 (HEK293) was > 20 µM and the Activity (Schistosoma mansoni [4]) was “Active”. The Activity (Schistosoma mansoni [9]) was “Active”.
With `Cc1ccc(NC(=O)c2ccc(C#N)cc2)cc1C` the Activity (Schistosoma mansoni [7]) was “inactive”, the Activity (Schistosoma mansoni [8]) was “inactive” and the Activity (Schistosoma mansoni [2]) was “inactive”. For the same compound, the Activity (Schistosoma mansoni [5]) was “inactive”, the CC50 (HEK293) was > 20 µM and the Activity (Schistosoma mansoni [10]) was “inactive”. The Activity (Schistosoma mansoni [4]) was “inactive”, the Activity (Schistosoma mansoni [6]) was “inactive” and the Activity (Schistosoma mansoni [9]) was “inactive”.
With `O=C(Nc1ccc(Cl)nn1)c1cccc(F)c1` the Activity (Schistosoma mansoni [7]) was “inactive”, the Activity (Schistosoma mansoni [8]) was “inactive” and the Activity (Schistosoma mansoni [2]) was “inactive”. For the same compound, the Activity (Schistosoma mansoni [5]) was “inactive”, the CC50 (HEK293) was > 20 µM and the Activity (Schistosoma mansoni [10]) was “inactive”. The Activity (Schistosoma mansoni [4]) was “inactive”, the Activity (Schistosoma mansoni [6]) was “inactive” and the Activity (Schistosoma mansoni [9]) was “inactive”.
For `O=C(Nc1cccc(C(F)(F)F)c1)c1ccc(C(F)(F)F)cc1`, the Activity (Schistosoma mansoni [7]) was “Active”, the selectivity ratio [1] was 10.1 and the Activity (Schistosoma mansoni [5]) was “Active”. For the same compound, the EC50 (Schistosoma mansoni [3]) was 1.1 µM, the Activity (Schistosoma mansoni [10]) was “Active” and the Activity (Schistosoma mansoni [4]) was “Active”.
With `COc1ccc(NC(=O)c2ccc(C#N)cc2)cc1OC` the Activity (Schistosoma mansoni [7]) was “inactive”, the Activity (Schistosoma mansoni [8]) was “inactive” and the Activity (Schistosoma mansoni [2]) was “inactive”. The Activity (Schistosoma mansoni [5]) was “inactive”, the CC50 (HEK293) was > 20 µM and the Activity (Schistosoma mansoni [10]) was “inactive”. For the same compound, the Activity (Schistosoma mansoni [4]) was “inactive”, the Activity (Schistosoma mansoni [6]) was “inactive” and the Activity (Schistosoma mansoni [9]) was “inactive”.
With `O=C(Nc1ccc(F)c(F)c1)c1ccc(C(F)(F)F)cc1` the Activity (Schistosoma mansoni [8]) was “Active”, the selectivity ratio [1] was 3.84 and the Activity (Schistosoma mansoni [2]) was “Active”. The EC50 (Schistosoma mansoni [3]) was 3.8 µM, the CC50 (HEK293) was 14.6 µM and the Activity (Schistosoma mansoni [4]) was “Active”. The Activity (Schistosoma mansoni [9]) was “Active”.
With `O=C(Nc1cccc(C(F)(F)F)c1)c1ccc(F)cc1` the Activity (Schistosoma mansoni [2]) was “inactive”, the Activity (Schistosoma mansoni [5]) was “inactive” and the CC50 (HEK293) was > 20 µM. The Activity (Schistosoma mansoni [10]) was “inactive”, the Activity (Schistosoma mansoni [4]) was “inactive” and the Activity (Schistosoma mansoni [6]) was “inactive”. For the same compound, the Activity (Schistosoma mansoni [9]) was “inactive”.
For `O=C(Nc1ccc(Cl)c(Cl)c1)c1ccc(F)cc1`, the Activity (Schistosoma mansoni [8]) was “Active”, the Activity (Schistosoma mansoni [2]) was “Active” and the CC50 (HEK293) was > 20 µM. The Activity (Schistosoma mansoni [6]) was “Active” and the Activity (Schistosoma mansoni [9]) was “Active”.
In the case of `Cc1ccc(NC(=O)c2ccccc2)cc1C`, the Activity (Schistosoma mansoni [7]) is reported as “inactive”, the Activity (Schistosoma mansoni [8]) is reported as “inactive” and the Activity (Schistosoma mansoni [2]) is reported as “inactive”. For the same compound, the Activity (Schistosoma mansoni [5]) was “inactive”, the CC50 (HEK293) was > 20 µM and the Activity (Schistosoma mansoni [10]) was “inactive”. The Activity (Schistosoma mansoni [4]) was “inactive”, the Activity (Schistosoma mansoni [6]) was “inactive” and the Activity (Schistosoma mansoni [9]) was “inactive”.
With `O=C(Nc1ccccc1)c1ccc(F)cc1` the Activity (Schistosoma mansoni [7]) was “inactive”, the Activity (Schistosoma mansoni [8]) was “inactive” and the Activity (Schistosoma mansoni [2]) was “inactive”. For the same compound, the Activity (Schistosoma mansoni [5]) was “inactive”, the CC50 (HEK293) was > 20 µM and the Activity (Schistosoma mansoni [10]) was “inactive”. For the same compound, the Activity (Schistosoma mansoni [4]) was “inactive”, the Activity (Schistosoma mansoni [6]) was “inactive” and the Activity (Schistosoma mansoni [9]) was “inactive”.
With `COc1ccc(NC(=O)c2ccccc2)cc1OC` the Activity (Schistosoma mansoni [7]) was “inactive”, the Activity (Schistosoma mansoni [8]) was “inactive” and the Activity (Schistosoma mansoni [2]) was “inactive”. For the same compound, the Activity (Schistosoma mansoni [5]) was “inactive”, the CC50 (HEK293) was > 20 µM and the Activity (Schistosoma mansoni [10]) was “inactive”. The Activity (Schistosoma mansoni [4]) was “inactive”, the Activity (Schistosoma mansoni [6]) was “inactive” and the Activity (Schistosoma mansoni [9]) was “inactive”.
For `COc1ccc(NC(=O)c2ccc(F)cc2)cc1OC`, the Activity (Schistosoma mansoni [2]) was “inactive”, the Activity (Schistosoma mansoni [5]) was “inactive” and the CC50 (HEK293) was > 20 µM. For the same compound, the Activity (Schistosoma mansoni [10]) was “inactive”, the Activity (Schistosoma mansoni [4]) was “inactive” and the Activity (Schistosoma mansoni [6]) was “inactive”. For the same compound, the Activity (Schistosoma mansoni [9]) was “inactive”.
In the case of `O=C(Nc1ccc(Cl)c(Cl)c1)c1ccc(C(F)(F)F)cc1`, the Activity (Schistosoma mansoni [7]) is reported as “Active”, the selectivity ratio [1] is reported as 123 and the Activity (Schistosoma mansoni [5]) is reported as “Active”. For the same compound, the EC50 (Schistosoma mansoni [3]) was 0.08 µM, the Activity (Schistosoma mansoni [10]) was “Active” and the Activity (Schistosoma mansoni [4]) was “Active”.
In the case of `N#Cc1ccc(C(=O)Nc2cccc(C(F)(F)F)c2)cc1`, the Activity (Schistosoma mansoni [7]) is reported as “inactive”, the Activity (Schistosoma mansoni [8]) is reported as “inactive” and the Activity (Schistosoma mansoni [2]) is reported as “inactive”. The Activity (Schistosoma mansoni [5]) was “inactive”, the CC50 (HEK293) was > 20 µM and the Activity (Schistosoma mansoni [10]) was “inactive”. The Activity (Schistosoma mansoni [4]) was “inactive”, the Activity (Schistosoma mansoni [6]) was “inactive” and the Activity (Schistosoma mansoni [9]) was “inactive”.
In the case of `O=C(Nc1ccc(Cl)c(Cl)c1)c1ccccc1`, the Activity (Schistosoma mansoni [8]) is reported as “Active”, the Activity (Schistosoma mansoni [2]) is reported as “Active” and the CC50 (HEK293) is reported as > 20 µM. The Activity (Schistosoma mansoni [6]) was “Active” and the Activity (Schistosoma mansoni [9]) was “Active”.
In the case of `O=C(Nc1ccc(F)c(F)c1)c1ccccc1`, the Activity (Schistosoma mansoni [7]) is reported as “inactive”, the Activity (Schistosoma mansoni [8]) is reported as “inactive” and the Activity (Schistosoma mansoni [2]) is reported as “inactive”. The Activity (Schistosoma mansoni [5]) was “inactive”, the CC50 (HEK293) was > 20 µM and the Activity (Schistosoma mansoni [10]) was “inactive”. For the same compound, the Activity (Schistosoma mansoni [4]) was “inactive”, the Activity (Schistosoma mansoni [6]) was “inactive” and the Activity (Schistosoma mansoni [9]) was “inactive”.
In the case of `COc1ccc(NC(=O)c2ccc(C(F)(F)F)cc2)cc1OC`, the Activity (Schistosoma mansoni [7]) is reported as “inactive”, the Activity (Schistosoma mansoni [8]) is reported as “inactive” and the Activity (Schistosoma mansoni [2]) is reported as “inactive”. For the same compound, the Activity (Schistosoma mansoni [5]) was “inactive”, the CC50 (HEK293) was > 20 µM and the Activity (Schistosoma mansoni [10]) was “inactive”. The Activity (Schistosoma mansoni [4]) was “inactive”, the Activity (Schistosoma mansoni [6]) was “inactive” and the Activity (Schistosoma mansoni [9]) was “inactive”.
In the case of `N#Cc1ccc(C(=O)Nc2ccccc2)cc1`, the Activity (Schistosoma mansoni [7]) is reported as “inactive”, the Activity (Schistosoma mansoni [8]) is reported as “inactive” and the Activity (Schistosoma mansoni [2]) is reported as “inactive”. For the same compound, the Activity (Schistosoma mansoni [5]) was “inactive”, the CC50 (HEK293) was > 20 µM and the Activity (Schistosoma mansoni [10]) was “inactive”. The Activity (Schistosoma mansoni [4]) was “inactive”, the Activity (Schistosoma mansoni [6]) was “inactive” and the Activity (Schistosoma mansoni [9]) was “inactive”.
In the case of `N#Cc1ccc(C(=O)Nc2ccc(F)c(F)c2)cc1`, the Activity (Schistosoma mansoni [7]) is reported as “inactive”, the Activity (Schistosoma mansoni [8]) is reported as “inactive” and the Activity (Schistosoma mansoni [2]) is reported as “inactive”. The Activity (Schistosoma mansoni [5]) was “inactive”, the CC50 (HEK293) was > 20 µM and the Activity (Schistosoma mansoni [10]) was “inactive”. For the same compound, the Activity (Schistosoma mansoni [4]) was “inactive”, the Activity (Schistosoma mansoni [6]) was “inactive” and the Activity (Schistosoma mansoni [9]) was “inactive”.
For `Cc1ccc(NC(=O)c2ccc(F)cc2)cc1C`, the Activity (Schistosoma mansoni [7]) was “inactive”, the Activity (Schistosoma mansoni [8]) was “inactive” and the Activity (Schistosoma mansoni [2]) was “inactive”. For the same compound, the Activity (Schistosoma mansoni [5]) was “inactive”, the CC50 (HEK293) was > 20 µM and the Activity (Schistosoma mansoni [10]) was “inactive”. The Activity (Schistosoma mansoni [4]) was “inactive”, the Activity (Schistosoma mansoni [6]) was “inactive” and the Activity (Schistosoma mansoni [9]) was “inactive”.
For `O=C(Nc1cccc(C(F)(F)F)c1)c1ccccc1`, the Activity (Schistosoma mansoni [2]) was “inactive”, the Activity (Schistosoma mansoni [5]) was “inactive” and the CC50 (HEK293) was > 20 µM. For the same compound, the Activity (Schistosoma mansoni [4]) was “inactive” and the Activity (Schistosoma mansoni [6]) was “inactive”.
For `O=C(Nc1ccccc1)c1ccc(C(F)(F)F)cc1`, the Activity (Schistosoma mansoni [7]) was “inactive”, the Activity (Schistosoma mansoni [8]) was “inactive” and the Activity (Schistosoma mansoni [2]) was “inactive”. For the same compound, the Activity (Schistosoma mansoni [5]) was “inactive”, the CC50 (HEK293) was > 20 µM and the Activity (Schistosoma mansoni [10]) was “inactive”. For the same compound, the Activity (Schistosoma mansoni [4]) was “inactive”, the Activity (Schistosoma mansoni [6]) was “inactive” and the Activity (Schistosoma mansoni [9]) was “inactive”.
